Test results taken from patent US9351955B2, “Compounds and pharmaceutical compositions thereof for the treatment of cystic fibrosis” (Galapagos NV, priority 2013, dated 2016).

These compounds were tested against T1, CFTR ΔF508 mutant (Homo sapiens, UniProt P13569, DEL508-508) (assay: YFP-halide influx assay for the CFTR-ΔF508 mutation (384 well, CFBE41o- cells, FDSS/μCell)). Details: forskolin 10.67 μM, fluorescence after 36 seconds, read-out: EC50 measured by YFP-halide influx assay for the CFTR-ΔF508.
T1 construct: expressed in transfected cells; host or cells: CFBE41o- (adenoviral transduction)
T1 sequence (P13569 with tags, fused parts or gaps DEL508-508): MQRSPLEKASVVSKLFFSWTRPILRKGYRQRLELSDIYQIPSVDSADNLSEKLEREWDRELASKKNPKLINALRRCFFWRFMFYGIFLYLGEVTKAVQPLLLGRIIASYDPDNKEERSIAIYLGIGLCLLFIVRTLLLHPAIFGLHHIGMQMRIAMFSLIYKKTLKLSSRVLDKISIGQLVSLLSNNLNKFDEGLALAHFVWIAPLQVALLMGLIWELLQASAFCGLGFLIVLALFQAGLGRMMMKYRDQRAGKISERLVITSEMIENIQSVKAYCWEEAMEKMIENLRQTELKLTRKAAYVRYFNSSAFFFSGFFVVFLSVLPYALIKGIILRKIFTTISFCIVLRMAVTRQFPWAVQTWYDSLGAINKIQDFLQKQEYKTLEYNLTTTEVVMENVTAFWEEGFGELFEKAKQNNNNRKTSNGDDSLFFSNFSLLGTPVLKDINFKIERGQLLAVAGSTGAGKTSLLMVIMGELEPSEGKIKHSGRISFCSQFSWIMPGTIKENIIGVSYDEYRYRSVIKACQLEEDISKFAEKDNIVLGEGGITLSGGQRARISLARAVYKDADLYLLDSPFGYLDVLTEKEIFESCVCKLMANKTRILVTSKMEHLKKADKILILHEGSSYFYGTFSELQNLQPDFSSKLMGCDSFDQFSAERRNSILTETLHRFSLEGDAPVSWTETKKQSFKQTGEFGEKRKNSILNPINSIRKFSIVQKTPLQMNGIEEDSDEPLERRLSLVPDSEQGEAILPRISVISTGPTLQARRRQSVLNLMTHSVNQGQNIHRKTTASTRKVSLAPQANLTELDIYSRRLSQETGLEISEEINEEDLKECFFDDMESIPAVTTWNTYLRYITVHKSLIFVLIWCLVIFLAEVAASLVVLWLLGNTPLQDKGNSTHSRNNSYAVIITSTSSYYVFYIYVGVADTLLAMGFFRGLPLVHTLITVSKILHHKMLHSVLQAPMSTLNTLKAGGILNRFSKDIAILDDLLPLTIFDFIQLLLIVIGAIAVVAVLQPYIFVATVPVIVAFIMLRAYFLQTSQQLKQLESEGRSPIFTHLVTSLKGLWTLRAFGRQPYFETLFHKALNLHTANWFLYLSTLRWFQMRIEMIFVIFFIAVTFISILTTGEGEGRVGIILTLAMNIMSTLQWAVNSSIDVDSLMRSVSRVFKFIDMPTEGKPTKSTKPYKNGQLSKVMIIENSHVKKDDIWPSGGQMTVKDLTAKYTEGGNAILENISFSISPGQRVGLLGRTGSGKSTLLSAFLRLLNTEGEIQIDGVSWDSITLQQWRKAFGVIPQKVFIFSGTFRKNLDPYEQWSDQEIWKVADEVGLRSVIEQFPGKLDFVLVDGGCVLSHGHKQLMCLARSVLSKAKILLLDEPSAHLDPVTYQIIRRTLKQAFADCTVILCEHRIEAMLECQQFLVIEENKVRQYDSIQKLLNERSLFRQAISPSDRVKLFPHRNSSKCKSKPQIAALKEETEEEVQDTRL
Type: cell-based
Source text: 6.2. YFP-Halide Influx Assay for the CFTR-ΔF508 Mutation
The YFP halide influx assay measures the functionality of the cystic fibrosis Transmembrane Conductance regulator (CFTR) channels in the cystic fibrosis bronchial epithelium cell line CFBE41o-. The assay is used to evaluate the capacity of compounds to increase the open probability of existing CFTR channels in the membrane. It makes use of the observation that the yellow fluorescent protein (YFP) variant YFP H148Q, I152L has its fluorescence substantially quenched by halide ions like Cl— and I— (Galietta et al., 2001; Nagai et al., 2002).
For this purpose, CFBE410-cells are seeded in 384 well plates (3000 CFBE cells/well). One day after seeding, the CFBE cells are transduced with adenoviral vectors that direct the expression of the CFTR ΔF508 mutant and of the YFP reporter. Cells are incubated at 27° C., 5% CO2 for 24 hours so as to allow for the proper folding and migration to the membrane of the CFTR channel or treated with a CFTR modulator during 24 h at 37° C.
The I— induced quenching of fluorescence is recorded […] immediately after injection of I— for 2 min on an FDSS/μCell (Hamamatsu). The capacity of a compound to increase the channel opening is directly correlated with the decrease in fluorescence, and is expressed as (1−(fluorescence after 36 seconds (F)/fluorescence before injection (F0))) and an EC50 can be derived from a (1−F/F0) vs compound concentration plot.

SMILES	EC50
CC1(C)Cc2c(sc(NC(=O)C3CC3F)c2C(N)=O)C(C)(C)O1 (single isomer, unassigned) [Compound 43, Cis-2-[[2-fluorocyclopropanecarbonyl]amino]-5,5,7,7-tetramethyl-4H-thieno[2,3-c]pyran-3-carboxamide]	495 nM
CC1(C)Cc2c(sc(NC(=O)C3CC3F)c2C(N)=O)C(C)(C)O1 (single isomer, unassigned) [Compound 44, Cis-2-[[2-fluorocyclopropanecarbonyl]amino]-5,5,7,7-tetramethyl-4H-thieno[2,3-c]pyran-3-carboxamide]	276 nM
COCC(C)(O)C(=O)Nc1sc2c(c1C(N)=O)CC(C)(C)OC2(C)C (single isomer, unassigned) [Compound 165, 2-[[2-hydroxy-3-methoxy-2-methyl-propanoyl]amino]-5,5,7,7-tetramethyl-4H-thieno[2,3-c]pyran-3-carboxamide]	145 nM
COCC(C)(O)C(=O)Nc1sc2c(c1C(N)=O)CC(C)(C)OC2(C)C (single isomer, unassigned) [Compound 166]	116 nM
CCOc1cc(C(=O)Nc2sc3c(c2C(N)=O)CC(C)(C)OC3(C)C)n[nH]1 [Compound 54, 5-Ethoxy-1H-pyrazole-3-carboxylic acid (3-carbamoyl-5,5,7,7-tetramethyl-4,7-dihydro-5H-thieno[2,3-c]pyran-2-yl)-amide]	8.51 nM
CC(C)(O)CC(=O)Nc1sc2c(c1C(N)=O)CC(C)(C)OC2(C)C [Compound 56, 2-[(3-hydroxy-3-methyl-butanoyl)amino]-5,5,7,7-tetramethyl-4H-thieno[2,3-c]pyran-3-carboxamide]	79.3 nM
CC(O)CC(=O)Nc1sc2c(c1C(N)=O)CC(C)(C)OC2(C)C (stereo not drawn) [Compound 58, 2-(3-hydroxybutanoylamino)-5,5,7,7-tetramethyl-4H-thieno[2,3-c]pyran-3-carboxamide]	178 nM
CC1(C)Cc2c(sc(NC(=O)[C@H]3C[C@@H]3CO)c2C(N)=O)C(C)(C)O1 [Compound 83, 2-[[(1S,2S)-2-(hydroxymethyl)cyclopropanecarbonyl]amino]-5,5,7,7-tetramethyl-4H-thieno[2,3-c]pyran-3-carboxamide]	644 nM
CCC(CO)C(=O)Nc1sc2c(c1C(N)=O)CC(C)(C)OC2(C)C (stereo not drawn) [Compound 86, 2-[2-(hydroxymethyl)butanoylamino]-5,5,7,7-tetramethyl-4H-thieno[2,3-c]pyran-3-carboxamide]	160 nM
CC1(C)Cc2c(sc(NC(=O)C(CO)C(C)(C)C)c2C(N)=O)C(C)(C)O1 (stereo not drawn) [Compound 89, 2-[[2-(hydroxymethyl)-3,3-dimethyl-butanoyl]amino]-5,5,7,7-tetramethyl-4H-thieno[2,3-c]pyran-3-carboxamide]	313 nM
CC1(C)Cc2c(sc(NC(=O)C3(CO)CC3(C)C)c2C(N)=O)C(C)(C)O1 (stereo not drawn) [Compound 91, 2-[[1-(hydroxymethyl)-2,2-dimethyl-cyclopropanecarbonyl]amino]-5,5,7,7-tetramethyl-4H-thieno[2,3-c]pyran-3-carboxamide]	64.1 nM
CC1(C)Cc2c(sc(NC(=O)C3CCC(=O)N3)c2C(N)=O)C(C)(C)O1 (stereo not drawn) [Compound 107, N-(3-carbamoyl-5,5,7,7-tetramethyl-4H-thieno[2,3-c]pyran-2-yl)-5-oxo-pyrrolidine-2-carboxamide]	387 nM
Cn1ncc(C(=O)Nc2sc3c(c2C(N)=O)CC(C)(C)OC3(C)C)c1C(F)F [Compound 118, N-(3-carbamoyl-5,5,7,7-tetramethyl-4H-thieno[2,3-c]pyran-2-yl)-5-(difluoromethyl)-1-methyl-pyrazole-4-carboxamide]	303 nM
Cc1csc(C(=O)Nc2sc3c(c2C(N)=O)CC(C)(C)OC3(C)C)n1 [Compound 131, N-(3-carbamoyl-5,5,7,7-tetramethyl-4H-thieno[2,3-c]pyran-2-yl)-4-methyl-thiazole-2-carboxamide]	168 nM
CC1(C)Cc2c(sc(NC(=O)c3cnccn3)c2C(N)=O)C(C)(C)O1 [Compound 138, N-(3-carbamoyl-5,5,7,7-tetramethyl-4H-thieno[2,3-c]pyran-2-yl)pyrazine-2-carboxamide]	52.2 nM
Cc1noc(C)c1C(=O)Nc1sc2c(c1C(N)=O)CC(C)(C)OC2(C)C [Compound 140, N-(3-carbamoyl-5,5,7,7-tetramethyl-4H-thieno[2,3-c]pyran-2-yl)-3,5-dimethyl-isoxazole-4-carboxamide]	144 nM
Cc1ccn2c(=O)c(C(=O)Nc3sc4c(c3C(N)=O)CC(C)(C)OC4(C)C)cnc2c1 [Compound 144, N-(3-carbamoyl-5,5,7,7-tetramethyl-4H-thieno[2,3-c]pyran-2-yl)-8-methyl-4-oxo-pyrido[1,2-a]pyrimidine-3-carboxamide]	472 nM
CC1(C)Cc2c(sc(NC(=O)c3cnc4c(c3)OCCO4)c2C(N)=O)C(C)(C)O1 [Compound 145, N-(3-carbamoyl-5,5,7,7-tetramethyl-4H-thieno[2,3-c]pyran-2-yl)-2,3-dihydro-[1,4]dioxino[2,3-b]pyridine-7-carboxamide]	154 nM
Cc1oncc1C(=O)Nc1sc2c(c1C(N)=O)CC(C)(C)OC2(C)C [Compound 146, N-(3-carbamoyl-5,5,7,7-tetramethyl-4H-thieno[2,3-c]pyran-2-yl)-5-methyl-isoxazole-4-carboxamide]	202 nM
CC1(C)Cc2c(sc(NC(=O)C3(C)COC3)c2C(N)=O)C(C)(C)O1 [Compound 147, 5,5,7,7-tetramethyl-2-[(3-methyloxetane-3-carbonyl)amino]-4H-thieno[2,3-c]pyran-3-carboxamide]	169 nM
Cc1cc2nnc(C(=O)Nc3sc4c(c3C(N)=O)CC(C)(C)OC4(C)C)c(C)n2n1 [Compound 149, N-(3-carbamoyl-5,5,7,7-tetramethyl-4H-thieno[2,3-c]pyran-2-yl)-4,7-dimethyl-pyrazolo[5,1-c][1,2,4]triazine-3-carboxamide]	346 nM
C[C@H](O)C(=O)Nc1sc2c(c1C(N)=O)CC(C)(C)OC2(C)C [Compound 153, 2-[[(2S)-2-hydroxypropanoyl]amino]-5,5,7,7-tetramethyl-4H-thieno[2,3-c]pyran-3-carboxamide]	33.9 nM
COCC(C)(O)C(=O)Nc1sc2c(c1C(N)=O)CC(C)(C)OC2(C)C (stereo not drawn) [Compound 155, 2-[(2-hydroxy-3-methoxy-2-methyl-propanoyl)amino]-5,5,7,7-tetramethyl-4H-thieno[2,3-c]pyran-3-carboxamide]	71.5 nM
CC1(C)Cc2c(sc(NC(=O)c3n[nH]c4ncccc34)c2C(N)=O)C(C)(C)O1 [Compound 157, N-(3-carbamoyl-5,5,7,7-tetramethyl-4H-thieno[2,3-c]pyran-2-yl)-1H-pyrazolo[3,4-b]pyridine-3-carboxamide]	33.1 nM
CC1(C)Cc2c(sc(NC(=O)C3CCOCC3)c2C(N)=O)C(C)(C)O1 [Compound 158, 5,5,7,7-tetramethyl-2-(tetrahydropyran-4-carbonylamino)-4H-thieno[2,3-c]pyran-3-carboxamide]	301 nM
COCC(=O)Nc1sc2c(c1C(N)=O)CC(C)(C)OC2(C)C [Compound 160, 2-[(2-methoxyacetyl)amino]-5,5,7,7-tetramethyl-4H-thieno[2,3-c]pyran-3-carboxamide]	641 nM
CC1(C)Cc2c(sc(NC(=O)C3CCCO3)c2C(N)=O)C(C)(C)O1 (stereo not drawn) [Compound 162, 5,5,7,7-tetramethyl-2-(tetrahydrofuran-2-carbonylamino)-4H-thieno[2,3-c]pyran-3-carboxamide]	602 nM
CC1(C)Cc2c(sc(NC(=O)C3CCOC3)c2C(N)=O)C(C)(C)O1 (stereo not drawn) [Compound 163, 5,5,7,7-tetramethyl-2-(tetrahydrofuran-3-carbonylamino)-4H-thieno[2,3-c]pyran-3-carboxamide]	636 nM
COC(C)(C)C(=O)Nc1sc2c(c1C(N)=O)CC(C)(C)OC2(C)C [Compound 164, 2-[(2-methoxy-2-methyl-propanoyl)amino]-5,5,7,7-tetramethyl-4H-thieno[2,3-c]pyran-3-carboxamide]	646 nM
CC1(C)Cc2c(sc(NC(=O)C(O)C(F)(F)F)c2C(N)=O)C(C)(C)O1 (stereo not drawn) [Compound 167, 5,5,7,7-tetramethyl-2-[(3,3,3-trifluoro-2-hydroxy-propanoyl)amino]-4H-thieno[2,3-c]pyran-3-carboxamide]	7.58 nM
